Measurements taken from patent US6916607B2, “PEPTIDES AND PO[…] FROM THE SU[…] OF THE RAT COR[…] […] COR[…] USES OF THESE PRODUCTS FOR DIAGNOSIS FOR DETECTION OR T[…]” (Institute Pasteur, priority 1988, dated 2005).

System: mRNA coding for SMR1 in the SMG
Assay: Regulation of the accumulation of mRNA coding for SMR1 in the SMG of the rat by androgens (RNA transfer and hybridization with SMR1 cDNA probe)
Format: in vivo, Wistar rats
Method: 10 weeks old male and female Wistar rats were obtained from Iffa-Credo. The androgens were removed by castration and 10 days later 35 mg of testosterone (Sterandryl retard, Roussel) were injected by the intraperitoneal route in the cases indicated. In the cases indicated, the same dose of testosterone was administered to female rats. 8 weeks old DBA/2 and “Swiss” mice were obtained from the Pasteur Institute.
The RNA was prepared from rat and mouse tissues as described in the literature (Tronik D. et al. 1987, EMBO J. 6, 983-987). The in vitro translation of the RNAs was carried out by using the mRNA-dependent translation system as a lysate in the presence of mRNA-dependent reticulocytes (Pelham H. RB et al., 1976, Eur. J. Biochem. 67, 247-256). The products were analysed by electrophoresis on a denaturing polyacrylamide-NaDodSO4 gel. […]
Furthermore, various amounts (as indicated in the figure) of RNA from the SMG of male rats and female rats were subjected to electrophoresis on a 2% agarose-formaldehyde gel, they were transferred to filters and hybridized with the cDNA probe coding for SMR1. […] As is apparent in part B, the mRNA coding for SMR1 accumulates in very large quantities in the SMG of male Wistar rats, since an amount as low as 1.5 ng of total RNA was sufficient to give a hybridization signal. […]

Q: For `C[C@]12CC[C@H]3[C@@H](CCC4=CC(=O)CC[C@@]43C)[C@@H]1CC[C@@H]2O` [testosterone], which “accumulation of mRNA coding for SMR1 in the SMG” value (adult female rats, same dose (35 mg) of testosterone) is on record?
A: caused the accumulation of mRNA coding for SMR1 in amounts similar to that observed in the males

Q: And the “amount of mRNA coding for SMR1 in the SMG” value (castrated male rats, 35 mg testosterone by the intraperitoneal route 10 days after castration)?
A: restored the amount of mRNA coding for SMR1 to the same value as that observed in the non-castrated males
